Experimental data: patent US6797824B2, “Certain 4-aminomethyl-2-substituted imidazole derivatives and 2-aminomethyl-4-substituted imidazole derivatives; new classes of dopamine receptor subtype specific ligands” (Neurogen Corporation, priority 1990, dated 2004)
Counter-ions that a name gives are not always drawn.

Columns and labels:
[1] = biological target: T1, human dopamine D4 receptor subtype (Homo sapiens, UniProt P21917); experiment: D4 receptor binding, displacement of [3H]YM-09151-2
T1 construct: expressed in transfected cells
T1 sequence (P21917 1-419): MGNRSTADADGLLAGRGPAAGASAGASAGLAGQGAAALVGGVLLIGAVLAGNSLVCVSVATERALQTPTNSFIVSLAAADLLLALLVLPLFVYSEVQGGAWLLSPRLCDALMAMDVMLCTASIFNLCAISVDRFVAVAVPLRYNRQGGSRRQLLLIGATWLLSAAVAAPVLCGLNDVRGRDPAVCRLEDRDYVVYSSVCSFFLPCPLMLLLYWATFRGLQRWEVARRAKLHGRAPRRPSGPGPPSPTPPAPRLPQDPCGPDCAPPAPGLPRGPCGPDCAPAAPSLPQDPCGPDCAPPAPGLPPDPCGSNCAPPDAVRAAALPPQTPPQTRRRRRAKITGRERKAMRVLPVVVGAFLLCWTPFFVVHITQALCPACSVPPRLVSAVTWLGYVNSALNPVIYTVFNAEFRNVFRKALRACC
Description: Assay for D4 Receptor Binding Activity
Clonal cell lines expressing the human dopamine D4 receptor subtype were harvested in PBS and the cells centrifuged and the pellets stored at −80° C. until used in the binding assay. […] The homogenate is centrifuged at 48000×g for 10 minutes at 4° C. The resulting pellet is resuspended in fresh buffer and centrifuged again. After resuspension of the pellet in fresh buffer at […] aliquot is removed for protein determination. […] Incubations were carried out for 60 minutes at 25° C. in the presence of 0.1 nM [^3H] […] Non-specific binding was determined with 1 mM spiperone and radioactivity determined by counting in an LKB beta counter. Binding parameters were determined by non-linear least squares regression analysis, from which the inhibition constant (ki) could be calculated for each test compound.

[2] = system: male Sprague Dawley rats (learning and memory); experiment: Step-down passive avoidance task; format: in vivo, rat
Description: Non-naive male Sprague Dawley rats (SASCO St. Louis) weighing between 2000-300 grams, were housed in groups of three in a temperature and humidity controlled vivarium having a 12 hour light/dark cycle. Animals had ad lib access to food and water.
Both drugs were administered intravenously 5 minutes prior to training in both learning tasks.
Step-Down Passive Avoidance: A step-down passive avoidance platform 4 (cm)×7 (cm) was placed in the center of an electrified gris floor, which was contained within a large (45×45×50 cm) white translucent plexiglas enclosure having a closable lid. The bars of the grip were spaced 1.5 cm apart and were wired to a BRS-LVE shock generator/scrambler which was set to deliver a 2 mA 6 second shock. Four passive avoidance boxes were automated by customer software (Labview) and commercial interface modules (National Instruments) connected to a computer. The timing and delivery of the shock as well as the latency to steo down and the number of trials taken to reach criterion during raining was under the control of the computer. All testing was done in the presence of 62 db white noise. […]
Retention Testing: Testing was conduced approximately 24 hours after training, Drug-free animals were placed on the platform in the box in which they were trained and the latency to step down onto the unshocked floor was recorded for one trial. […]

[3] = biological target: T2, dopamine D4 receptors in human hippocampus (Homo sapiens, UniProt P21917); experiment: Binding to D4 receptors in human hippocampus
T2 construct: from tissue; host or cells: human hippocampus (from the head of the results)
T2 sequence (P21917 1-419): T1 sequence (P21917 1-419)

[4] = biological target: T3, dopamine D4 receptors in rat hippocampus (Rattus norvegicus, UniProt P30729); experiment: Binding to D4 receptors in rat hippocampus
T3 construct: from tissue; host or cells: rat hippocampus (from the head of the results)
T3 sequence (P30729 1-387): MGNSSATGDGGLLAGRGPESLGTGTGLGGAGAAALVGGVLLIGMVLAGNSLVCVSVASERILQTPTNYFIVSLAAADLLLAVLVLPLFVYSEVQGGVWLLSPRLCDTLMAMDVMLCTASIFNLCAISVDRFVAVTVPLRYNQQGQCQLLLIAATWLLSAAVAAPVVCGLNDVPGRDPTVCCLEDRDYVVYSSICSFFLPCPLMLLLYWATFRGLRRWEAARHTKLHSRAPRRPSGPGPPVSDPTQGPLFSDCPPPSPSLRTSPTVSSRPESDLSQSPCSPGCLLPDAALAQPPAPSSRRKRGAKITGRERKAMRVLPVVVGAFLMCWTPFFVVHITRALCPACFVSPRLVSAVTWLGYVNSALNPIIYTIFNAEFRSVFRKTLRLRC

SMILES	melting point	binding to dopamine D4 receptors, functional type [3]	binding to dopamine D4 receptors, functional type [4]	also measured
c1ccc(-c2ncc(CN3CCN(c4ncccn4)CC3)[nH]2)cc1 [Compound 23, 2-Phenyl-4(5)-[(4-(2-pyrimidinyl)-piperazin-1-yl)methyl]-imidazole dihydrochloride]	–	antagonists binding to dopamine D4 receptors	antagonists binding to dopamine D4 receptors	Ki [1]: 2.7 nM; passive avoidance retention: time on platform during retest vs vehicle ([2]; 0.25 mg/kg i.v., retest about 24 h after training): significantly longer time; passive avoidance acquisition vs vehicle group ([2]; 0.03-1.0 mg/kg i.v. 5 min prior to training): no significant differences
c1ccc(-c2ncc(CN3CCN(c4ccccn4)CC3)[nH]2)cc1 [Compound 24, 2-Phenyl-4(5)-[(4-(2-pyridyl)-piperazin-1-yl)-methyl]-imidazole dihydrochloride]	–	antagonists binding to dopamine D4 receptors	antagonists binding to dopamine D4 receptors	–
c1ccc(-c2ncc(CN3CCN(c4ccccc4)CC3)[nH]2)cc1 [Compound 45, 2-Phenyl-4(5)-[(4-phenyl-piperazin-1-yl)methyl]-imidazole]	–	antagonists binding to dopamine D4 receptors	antagonists binding to dopamine D4 receptors	Ki [1]: 5 nM
c1ccc(CC2CCN(CC3CCCc4[nH]c(-c5ccccc5)nc43)CC2)cc1 (centres unmarked) [Compound 138, 2-phenyl-7-[(4-benzyl-piperidin-1-yl)-methyl]-4,5,6,7-tetrahydrobenzimidazole]	189 to 191 °C	–	–	–
O=C(c1cnc(-c2ccccc2)[nH]1)N1CCN(c2ncccn2)CC1 [Compound 144, 2-phenyl-4(5)-N-[(4-(2-pyrimidinyl)-piperazin-1-yl)-carboxamido]-imidazole]	231 to 232 °C	–	–	–

Now from value to molecule, other results behind:

melting point	SMILES	binding to dopamine D4 receptors, functional type [3]	binding to dopamine D4 receptors, functional type [4]	also measured
130 to 135 °C	C[C@@H]1CN(c2ncccn2)C[C@H](C)N1Cc1cnc(-c2ccccc2)[nH]1 [Compound 140, 2-phenyl-4(5)-[(4-(2-pyrimidinyl)-cis-2,6-dimethylpiperazin-1-yl)-methyl]-imidazole]	–	–	–
142 to 144 °C	c1ccc(-c2ncc(CCN3CCN(c4ncccn4)CC3)[nH]2)cc1 [Compound 143, 2-phenyl-4(5)-[(4-(2-pyrimidinyl)-piperazin-1-yl)-ethan-1-yl]-imidazole]	–	–	–
